In PubChem BioAssay AID248 (DTP/NCI, 2004):
Several values for one entry are separate records, joined by “and”; a condition that tells them apart may be missing. Identical values can stand only once. Toxic doses and inconclusive results are not listed. No stated cut-off is given here; in the data, active means T/C of 150% or more; inactive means T/C below 125%.

Test system: L1210 leukemia ip in BDF1 mice, survival T/C
Experiment: NCI In Vivo Anticancer Drug Screen. Data for tumor model L1210 Leukemia (intraperitoneal) in B6D2F1 (BDF1) mice
Settings: endpoint: mean survival time, higher = longer survival
Summary of the method: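 Value reflects the ratio of survival in compound-treated mice to survival in vehicle-treated controls, with both groups carrying the same transplanted tumor.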

[1] = dose: 50.0 mg/kg/injection, schedule: Q01DX009 (ip), vehicle: saline
[2] = dose: 100.0 mg/kg/injection, schedule: Q01DX001 (ip), vehicle: saline
[3] = dose: 100.0 mg/kg/injection, schedule: Q01DX009 (ip), vehicle: saline
[4] = dose: 200.0 mg/kg/injection, schedule: Q01DX001 (ip), vehicle: saline
[5] = dose: 400.0 mg/kg/injection, schedule: Q01DX001 (ip), vehicle: saline
[6] = dose: 100.0 mg/kg/injection, schedule: Q04DX003 (ip), vehicle: saline with Tween-80
[7] = dose: 200.0 mg/kg/injection, schedule: Q04DX003 (ip), vehicle: saline with Tween-80
[8] = dose: 400.0 mg/kg/injection, schedule: Q04DX003 (ip), vehicle: saline with Tween-80
[9] = dose: 100.0 mg/kg/injection, schedule: Q04DX002 (ip), vehicle: Klucel (hydroxypropylcellulose) (HPC)
[10] = dose: 200.0 mg/kg/injection, schedule: Q04DX002 (ip), vehicle: Klucel (hydroxypropylcellulose) (HPC)
[11] = dose: 400.0 mg/kg/injection, schedule: Q04DX002 (ip), vehicle: Klucel (hydroxypropylcellulose) (HPC)

Measured: T/C

Nc1nc(=S)c2ncn(C3OCC(O)C(O)C3O)c2[nH]1 (centres undefined)
inactive: dose: 5.0 mg/kg/injection, schedule: Q01DX001 (ip), vehicle: saline 101 % of control | dose: 10.0 mg/kg/injection, schedule: Q01DX001 (ip), vehicle: saline 95 % of control | dose: 12.5 mg/kg/injection, schedule: Q01DX009 (ip), vehicle: saline 98 % of control | dose: 20.0 mg/kg/injection, schedule: Q01DX001 (ip), vehicle: saline 96 % of control | dose: 25.0 mg/kg/injection, schedule: Q01DX009 (ip), vehicle: saline 97 % of control | dose: 40.0 mg/kg/injection, schedule: Q01DX001 (ip), vehicle: saline 101 % of control | [1] 98 % of control | dose: 80.0 mg/kg/injection, schedule: Q01DX001 (ip), vehicle: saline 96 % of control | [2] 98 % of control | [3] 101 % of control | [4] 102 % of control | [5] 102 % of control

Cn1/c(=N/N)sc2ccccc21.Cn1/c(=N/N)sc2ccccc21.Cn1/c(=N/N)sc2ccccc21.Cn1/c(=N\N)sc2ccccc21.[Cl][Rh][Cl]
inactive: dose: 3.13 mg/kg/injection, schedule: Q04DX003 (ip), vehicle: distilled water + Tween-80 100 % of control | dose: 6.25 mg/kg/injection, schedule: Q04DX003 (ip), vehicle: distilled water + Tween-80 98 % of control | dose: 12.5 mg/kg/injection, schedule: Q04DX003 (ip), vehicle: distilled water + Tween-80 101 % of control | dose: 25.0 mg/kg/injection, schedule: Q04DX003 (ip), vehicle: distilled water + Tween-80 101 % of control | dose: 50.0 mg/kg/injection, schedule: Q04DX003 (ip), vehicle: distilled water + Tween-80 93 % of control | dose: 100.0 mg/kg/injection, schedule: Q04DX003 (ip), vehicle: distilled water + Tween-80 90 % of control | dose: 200.0 mg/kg/injection, schedule: Q04DX003 (ip), vehicle: distilled water + Tween-80 95 % of control

[N-]=[N+]=NC(c1ccccc1)C(I)c1ccccc1 (centres undefined)
inactive: dose: 50.0 mg/kg/injection, schedule: Q01DX001 (ip), vehicle: saline 103 % of control | [2] 103 % of control | [4] 108 % of control | [5] 97 % of control

O=C(O)c1cc2ccccc2[nH]1
inactive: [6] 95 % of control | [7] 95 % of control | [8] 90 % of control

O=C1/C(=N/O)CCc2ccccc21
inactive: [1] 102 % of control | dose: 100.0 mg/kg/injection, schedule: Q01DX001 (ip), vehicle: carboxymethylcellulose (CMC) 103 % of control | [3] 103 % of control | dose: 200.0 mg/kg/injection, schedule: Q01DX001 (ip), vehicle: carboxymethylcellulose (CMC) 97 % of control

CC(=O)OCC(CS(=O)c1c(Cl)c(Cl)c(Cl)c(Cl)c1Cl)OC(C)=O (centres undefined)
inactive: dose: 25.0 mg/kg/injection, schedule: Q04DX002 (ip), vehicle: Klucel (hydroxypropylcellulose) (HPC) 93 % of control | dose: 50.0 mg/kg/injection, schedule: Q04DX002 (ip), vehicle: Klucel (hydroxypropylcellulose) (HPC) 86 % of control | [9] 106 % of control and 89 % of control | [10] 97 % of control and 124 % of control | [11] 109 % of control

O=C1/C(=C\c2ccc(O)cc2)Oc2cc(O)ccc21
inactive: dose: 100.0 mg/kg/injection, schedule: Q01DX001 (ip), vehicle: saline with Tween-80 98 % of control | dose: 200.0 mg/kg/injection, schedule: Q01DX001 (ip), vehicle: saline with Tween-80 87 % of control | dose: 400.0 mg/kg/injection, schedule: Q01DX001 (ip), vehicle: saline with Tween-80 90 % of control

COc1ccc(C(=O)Nc2c(C)cccc2C)cc1
inactive: dose: 100.0 mg/kg/injection, schedule: Q01DX009 (ip), vehicle: carboxymethylcellulose (CMC) 94 % of control and 90 % of control | [9] 112 % of control | dose: 100.0 mg/kg/injection, schedule: Q04DX002 (ip), vehicle: carboxymethylcellulose (CMC) 97 % of control and 108 % of control | dose: 100.0 mg/kg/injection, schedule: Q04DX003 (ip), vehicle: carboxymethylcellulose (CMC) 104 % of control | dose: 200.0 mg/kg/injection, schedule: Q01DX009 (ip), vehicle: carboxymethylcellulose (CMC) 94 % of control and 92 % of control | [10] 108 % of control | dose: 200.0 mg/kg/injection, schedule: Q04DX002 (ip), vehicle: carboxymethylcellulose (CMC) 100 % of control and 101 % of control | dose: 200.0 mg/kg/injection, schedule: Q04DX003 (ip), vehicle: carboxymethylcellulose (CMC) 106 % of control | dose: 400.0 mg/kg/injection, schedule: Q01DX009 (ip), vehicle: carboxymethylcellulose (CMC) 94 % of control and 97 % of control | [11] 108 % of control | dose: 400.0 mg/kg/injection, schedule: Q04DX002 (ip), vehicle: carboxymethylcellulose (CMC) 103 % of control | dose: 400.0 mg/kg/injection, schedule: Q04DX003 (ip), vehicle: carboxymethylcellulose (CMC) 106 % of control

Cc1ccnc(NS(=O)(=O)c2ccc(N=Nc3c(N)nc(N)nc3N)cc2)n1
inactive: [2] 92 % of control | [4] 97 % of control | [5] 121 % of control

C=C(N1CCCCC1)N1CCCCC1
inactive: dose: 100.0 mg/kg/injection, schedule: Q04DX002 (ip), vehicle: saline with Tween-80 100 % of control | dose: 200.0 mg/kg/injection, schedule: Q04DX002 (ip), vehicle: saline with Tween-80 96 % of control | dose: 400.0 mg/kg/injection, schedule: Q04DX002 (ip), vehicle: saline with Tween-80 116 % of control

C=CS(=O)(=O)Cc1ccc(Cl)cc1
inactive: dose: 10.0 mg/kg/injection, schedule: Q04DX002 (ip), vehicle: Klucel (hydroxypropylcellulose) (HPC) 117 % of control | dose: 20.0 mg/kg/injection, schedule: Q04DX002 (ip), vehicle: Klucel (hydroxypropylcellulose) (HPC) 106 % of control | dose: 40.0 mg/kg/injection, schedule: Q04DX002 (ip), vehicle: Klucel (hydroxypropylcellulose) (HPC) 98 % of control

COc1ccccc1C1N(C)CCCN1C
inactive: dose: 6.25 mg/kg/injection, schedule: Q04DX003 (ip), vehicle: saline 96 % of control | dose: 12.5 mg/kg/injection, schedule: Q04DX003 (ip), vehicle: saline 92 % of control | dose: 25.0 mg/kg/injection, schedule: Q04DX003 (ip), vehicle: saline 101 % of control

COc1cc(OC)c(NC(=O)c2ccccc2Cl)cc1Cl
inactive: dose: 100.0 mg/kg/injection, schedule: Q01DX009 (ip), vehicle: Klucel (hydroxypropylcellulose) (HPC) 92 % of control | dose: 200.0 mg/kg/injection, schedule: Q01DX009 (ip), vehicle: Klucel (hydroxypropylcellulose) (HPC) 90 % of control | dose: 400.0 mg/kg/injection, schedule: Q01DX009 (ip), vehicle: Klucel (hydroxypropylcellulose) (HPC) 93 % of control

CCCC#CCOCC(O)CCl (centres undefined)
inactive: dose: 100.0 mg/kg/injection, schedule: Q01DX009 (ip), vehicle: saline sonified 105 % of control | dose: 100.0 mg/kg/injection, schedule: Q04DX003 (ip), vehicle: saline sonified 91 % of control | dose: 200.0 mg/kg/injection, schedule: Q01DX009 (ip), vehicle: saline sonified 101 % of control | dose: 200.0 mg/kg/injection, schedule: Q04DX003 (ip), vehicle: saline sonified 94 % of control | dose: 400.0 mg/kg/injection, schedule: Q01DX009 (ip), vehicle: saline sonified 105 % of control | dose: 400.0 mg/kg/injection, schedule: Q04DX003 (ip), vehicle: saline sonified 94 % of control

C=CC[P+](Cc1ccccc1)(c1ccccc1)c1ccccc1
inactive: dose: 3.13 mg/kg/injection, schedule: Q01DX009 (ip), vehicle: saline with Tween-80 98 % of control | dose: 6.25 mg/kg/injection, schedule: Q01DX009 (ip), vehicle: saline with Tween-80 107 % of control | dose: 12.5 mg/kg/injection, schedule: Q01DX009 (ip), vehicle: saline with Tween-80 104 % of control and 115 % of control

O=C(O)C(Sc1ccccc1)c1ccccc1 (centres undefined)
inactive: dose: 100.0 mg/kg/injection, schedule: Q04DX002 (ip), vehicle: gum acacia 100 % of control | dose: 200.0 mg/kg/injection, schedule: Q04DX002 (ip), vehicle: gum acacia 100 % of control | dose: 400.0 mg/kg/injection, schedule: Q04DX002 (ip), vehicle: gum acacia 104 % of control

CCOC1c2ccccc2-c2ccccc2N1C(=O)c1ccccc1 (centres undefined)
inactive: dose: 50.0 mg/kg/injection, schedule: Q04DX003 (ip), vehicle: saline with Tween-80 98 % of control | [6] 106 % of control | [7] 97 % of control and 109 % of control | [8] 103 % of control

CC(=O)C(C#N)C(C)=O.CC(=O)C(C#N)C(C)=O.[Mn]
inactive: [3] 107 % of control | dose: 100.0 mg/kg/injection, schedule: Q04DX003 (ip), vehicle: saline 105 % of control | dose: 200.0 mg/kg/injection, schedule: Q04DX003 (ip), vehicle: saline 102 % of control
